Measurements: US5650444A, “Substituted biphenyl derivatives” (American Home Products Corporation, priority 1995, dated 1997)

System: PDE IV
Assay: Test Procedure No. 2: functional inhibition of PDE IV (relaxation of guinea pig tracheal rings precontracted with carbachol)
Assay type: cell-based, guinea pig (male Hartley)
Details: in presence of CI-930 (10 μM)
Method: The following standard test is also employed to assess the abilities of compounds to inhibit PDE IV functionally. […]
Tracheal relaxation resulting from the inhibition of PDE-IV or PDE-III was assessed by a method similar to that employed by Harris et al. (1989). […] The functional inhibition of PDE-IV or PDE-III was determined by adding a test compound to the tissue bath in cumulatively increasing concentrations and monitoring the degree of relaxation induced in the continued presence of CI-930 or rolipram (respectively). […] Percent relaxations produced by each concentration of test compound were calculated as a percentage relaxation of tension maintained in the presence of the preincubating PDE inhibitor, relative to the final resting tension determined at the end of each experiment. […]

- IC50: 120 nM
Structure (SMILES): COC(=O)c1cccc(-c2ccc(OC)c(OC3CCCC3)c2)c1 [Example 18, 3'-Cyclopentyloxy-4'-methoxy-biphenyl-3-carboxylic acid methyl ester]
